“Also recorded” adds a separate entry of the source. Where two headings read alike, the source gives them in different places.
How the values were obtained:
HTLV-IIIB = test: Inhibitory effect on HIV-induced cell damage in infected MT-4 cells (MTT method); assay type: cell-based; conditions: Human immunodeficiency virus 1, IIIB, MT4, 120 h, read-out: Efficiency
Protocol: (§1) In this test, there were used human T cell strain MT-4 cells (Gann monogr., Vol. 28, pp219-228 (1982)), which was tranformed with HTLV-1 which is an etiogenic virus of adult T cell leukemia, and HTLV-IIIB which is one of HIV strains. This test was performed in accordance with the method of Pauwels et al. (Pauwels et al., J. Virol. Methods, Vol. 20, pp309-21 (1988)).
(§2) Immediately after MT-4 cells were infected with HTLV-IIIB [MOI (multiplicity of infection =the number of inoculated virus/the number of cells): 0.01], sodium L-tyrosine sulfate and the HTLV-IIB-infected MT-4 cells were added to a microtiter plate having 96 wells at a variety of concentrations of sodium L-tyrosine sulfate and the concentration of 2.5×10^4 cells/well, respectively. These samples were cultivated at 37° C. for five days with carbon dioxide incubator. According to MTT method, the number of survival cells was then determined by measuring an absorbance to calculate an efficiency.

[1] = molecular target: T1, reverse transcriptase derived from HIV (Human immunodeficiency virus type 1 group M subtype B, UniProt P04585); test: Reverse transcriptase inhibitory effect, HIV enzyme; assay type: biochemical
T1 construct: the reverse transcriptase derived from HIV
Protocol: (§3) 20 μl of reaction solution was prepared so as to comprise 50 mM of Tris-hydrochloric acid buffer solution (pH 8.5), 40 mM of KCl, 6 mM of MgCl2, 1 mM of dithiothreitol, 50 μg/ml of poly(A). oligo (dT)12-18, [α^-32 P] deoxythymidine triphosphate, reverse transcriptase and sodium L-tyrosine sulfate.
(§4) After the reaction solution was incubated at 37° C. for 10 minutes, the reaction solution was deposited on DE 81 filter (available from Whatman). The filter was then washed thoroughly with 5% aqueous solution of Na2 HPO4 and subsequently with water, ethanol and diethyl ether. Radiation of the filter was examined by scintillation counter and then the concentration which inhibits 50% of reverse transcriptase activity (IC50) was calculated.
(§5) The reverse transcriptases used in this test were those derived from AMV (avian myeloblastosis virus) and HIV.

[2] = Influence on the proliferation of T cells (non-infected MT-4 cells); assay type: cell-based; conditions: human, read-out: Survival rate
Protocol: as §1, §2
As in Test Example 1, there was determined the influence of sodium L-tyrosine sulfate on the proliferation of HTLV-IIIB-non-infected MT-4 cells and the survival rate of the cells was calculated.

male mice of ICR = test: Acute toxicity on mice; assay type: in vivo; conditions: intraperitoneally, 500 mg/kg, male ICR mice at age of 4 weeks
Protocol: Sodium L-tyrosine sulfate was intraperitoneally injected to male mice of ICR at age of 4 weeks at the dose of 500 mg/kg to examine an acute toxicity.

mice leukemia cell L1210 = test: Influence on the proliferation of mice leukemia cell L1210; assay type: cell-based; conditions: 250 μg/ml, cultured for four days, compared with compound-free control
Protocol: To the culture of mice leukemia cell L1210, sodium L-tyrosine sulfate was added at the concentration of 250 μg/ml and then the mixture was cultured for four days.

[3] = molecular target: reverse transcriptase derived from AMV; test: Reverse transcriptase inhibitory effect, AMV enzyme; assay type: biochemical, AMV (avian myeloblastosis virus); conditions: poly(A).oligo(dT)12-18, 37° C., 10 minutes
Protocol: as §3, §4, §5

Solvent solubility = assay type: physicochemical; conditions: sulfate

Compound: N[C@@H](Cc1ccc(OS(=O)(=O)[O-])cc1)C(=O)O.[Na+] [sulfate]
- inhibition at 0.32 µg/mL (HTLV-IIIB): -5%
- inhibition at 1.6 µg/mL (HTLV-IIIB): 61%
- inhibition at 8 µg/mL (HTLV-IIIB): 116%
- inhibition at 40 µg/mL (HTLV-IIIB): 91%
- inhibition at 200 µg/mL (HTLV-IIIB): 124%
- inhibition at 1000 µg/mL (HTLV-IIIB): 106%
- IC50 [1]: 127 µM
- viability at 120 h ([2]; 0.32 μg/ml): 98%
- viability at 120 h ([2]; 1.6 μg/ml): 97%
- viability at 120 h ([2]; 8 μg/ml): 110%
- viability at 120 h ([2]; 40 μg/ml): 94%
- viability at 120 h ([2]; 200 μg/ml): 120%
- viability at 120 h ([2]; 1000 μg/ml): 112%

Compound: N[C@@H](Cc1ccc(OS(=O)(=O)[O-])cc1)C(=O)O.[Na+]
- Acute toxicity (male mice of ICR): not observed any remarkable toxicity
- Inhibitory effect on the proliferation of L1210 (mice leukemia cell L1210): hardly any inhibitory effects on the proliferation
- IC50 (concentration which inhibits 50% of reverse transcriptase activity) [3]: 230 µg/mL
- Solvent solubility (Solvent solubility; product of Synthesis Example 1 before purification): soluble in water, methanol and dimethyl sulfoxide; also recorded: insoluble in acetone, ethylacetate, hexane and chloroform
- Solvent solubility (Solvent solubility; product of Synthesis Example 1 purified by Sephadex LH-20): soluble in water, methanol and dimethyl sulfoxide; also recorded: insoluble in acetone, ethylacetate, hexane and chloroform

Reference: US5614554A, “Reverse transcriptase inhibitors and antiviral agents” (Nippon Flour Mills Co., Ltd., priority 1992, dated 1997)
